The results in this text go back to patent US20190092804A1, “URACYL SPIROOXETANE NUCLEOSIDES” (Janssen Sciences Ireland Unlimited Company, priority 2012, published 2019).

Series [1] concerns JFH1-HCVcc in primary human hepatocytes. In kind it is cell-based, HCV (JFH1); human hepatocytes. Particulars: 3 days. The protocol:
Primary human hepatocytes (PHH) were prepared from patients undergoing partial hepatectomy for metastases or benign tumors. Fresh human hepatocytes were isolated from encapsulated liver fragments using a modification of the two-step collagenase digestion method. Briefly, encapsulated liver tissue was placed in a custom-made perfusion apparatus and hepatic vessels were cannulated with tubing attached multichannel manifold. The liver fragment was initially perfused for 20 min with a prewarmed (37° C.) calcium-free buffer supplemented with ethylene glycol tetraacetic acid (EGTA) followed by perfusion with a prewarmed (37° C.) buffer containing calcium (CaCl2), H2O2) and collagenase 0.05% for 10 min. Then, liver fragment was gently shaken to free liver cells in Hepatocyte Wash Medium. Cellular suspension was filtered through a gauze-lined funnel. Cells were centrifuged at low speed centrifugation. The supernatant, containing damaged or dead hepatocytes, non parenchymal cells and debris was removed and pelleted hepatocytes were re-suspended in Hepatocyte Wash Medium. Viability and cell concentration were determined by trypan blue exclusion test.
Cells were resuspended in complete hepatocyte medium consisting of William's medium (Invitrogen) supplemented with 100 IU/L insulin (Novo Nordisk, France), and 10% heat inactivated fetal calf serum (Biowest, France), and seeded at a density 1.8×10^6 viable cells onto 6 well plates that had been precoated with a type I collagen from calf skin (Sigma-Aldrich, France) The medium was replaced 16-20 hours later with fresh complete hepatocyte medium supplemented with hydrocortisone hemisuccinate (SERB, Paris, France), and cells were left in this medium until HCV inoculation. The cultures were maintained at 37° C. in a humidified 5% CO2 atmosphere.
The PHHs were inoculated 3 days after seeding. JFH1-HCVcc stocks were used to inoculate PHHs for 12 hours, at a multiplicity of infection (MOI) of 0.1 ffu per cell. After a 12-hours incubation at 37° C., the inoculum was removed, and monolayers were washed 3 times with phosphate-buffered saline and incubated in complete hepatocyte medium containing 0.1% dimethylsufoxide as carrier control, 100 IU/ml of IFNalpha as […] or else increasing concentrations of compound 8a. The cultures then were maintained during 3 days.
Total RNA was prepared from cultured cells or from filtered culture supernatants using the RNeasy or Qiamp viral RNA minikit respectively (Qiagen SA, Courtaboeuf, France) according to the manufacturer's recommendations. HCV RNA was quantified in cells and culture supernatants using a strand-specific reverse real-time PCR technique described previously (Carrière M and al 2007):
Reverse transcription was performed using primers described previously located in the […] region of HCV genome, tag-RC1 (5′-[…]-3′) and RC21 (5′-[…]-3′) for the negative and positive strands, respectively. After a denaturation step performed at 70° C. for 8 min, the RNA template was incubated at 4° C. for 5 min in the presence of 200 ng of tag-RC1 primer and 1.25 mM of each deoxynucleoside triphosphate (dNTP) (Promega, Charbonnieres, France) in a total volume of 12 μl.
Reverse transcription was carried out for 60 min at 60° C. in the presence of 20 U RNaseOut™ (Invitrogen, Cergy Pontoise, France) and 7.5 U Thermoscript™ reverse transcriptase (Invitrogen), in the buffer recommended by the manufacturer. An additional treatment was applied by adding 1 μl (2U) RNaseH (Invitrogen) for 20 min at 37° C.
The first round of nested PCR was performed with 2 μl of the cDNA obtained in a total volume of 50 μl, containing 3 U Taq polymerase (Promega), 0.5 mM dNTP, and 0.5 μM RC1 (5′-[…]-3′) and RC21 primers for positive-strand amplification, or Tag (5′-[…]-3′) and RC21 primers for negative strand amplification. […]

A further series concerns HCV G1a. Nature of the series: In vivo efficacy assay, humanized hepatocyte mouse model. The arrangement: species or system HCV G1a-infected PXB-mice. Particulars: PXB-mice. The protocol:
The in vivo efficacy of compound 8a and CAS-1375074-52-4 was determined in a humanized hepatocyte mouse model (PBX-mouse) as previously described in Inoue et. al (Hepatology. 2007 April; 45(4):921-8) and Tenato et. al. (Am J Pathol 2004; 165-901-912) with the following specification: Test animals: HCV […]-infected PXB-mice, male or female, >70% replacement index of human hepatocytes. Dosing was performed p.o for 7 days at doses indicated below wherein QD represents a single dose per day, BID represents two doses per day. Efficacy of compound 8a was compared to CAS-1375074-52-4.

Series [2] concerns HCV 1b bicistronic subgenomic luciferase reporter replicon clone ET or Huh-Luc-Neo. Nature of the series: Replicon assays (B), Assay 3. The format is cell-based. Particulars: Hepatitis C virus, 72 h, 3-day incubation, 8×10^3 or 2×10^4 cells, 96-well, n = 1. The method, then:
The anti-HCV activity of compound 8a was tested in cell culture with replicon cells generated using reagents from the Bartenschlager laboratory (the HCV 1b bicistronic subgenomic luciferase reporter replicon clone ET or Huh-Luc-Neo). The protocol included either a 3-day incubation of 8×10^3 cells or 2×10^4 cells in a 96-well format in an eight-point 1:5 dilution series of the compound. Dose response curves were generated based on the luciferase read-out.
A general note: Replicon systems follow genome replication, usually without infectious particles.

Series [3] deals with HCV 1b bicistronic subgenomic luciferase reporter replicon clone ET. The experiment in a line: Replicon assays (B), Assay 1. The format is cell-based. Particulars: Hepatitis C virus, 72 h; 3-day incubation, 2500 cells 384-well luciferase (variation: 3000 cells 96-well qRT-PCR); n = 8. The protocol:
The anti-HCV activity of compound 8a was tested in cell culture with replicon cells generated using reagents from the Bartenschlager laboratory (the HCV 1b bicistronic subgenomic luciferase reporter replicon clone ET). The protocol included a 3-day incubation of 2500 replicon cells in a 384-well format in a nine-point 1:4 dilution series of the compound. Dose response curves were generated based on the firefly luciferase read-out. In a variation of this assay, a 3 day incubation of 3000 cells in a 96-well format in a nine-point dilution series was followed by qRT-PCR Taqman detection of HCV genome, and normalized to the cellular transcript, RPL13 (of the ribosomal subunit RPL13 gene) as a control for compound inhibition of cellular transcription.

Series [4] relates to HCV 1b bicistronic subgenomic luciferase reporter replicon clone ET or Huh-Luc-Neo. The experiment in a line: Replicon assays (B), Assay 2. The format is cell-based. Particulars: Hepatitis C virus, 72 h, 3-day incubation, 2×10^4 cells, 96-well, n = 4, read-out: Average EC50 value (8a), Assay 2. The protocol:
The anti-HCV activity of compound 8a was tested in cell culture with replicon cells generated using reagents from the Bartenschlager laboratory (the HCV 1b bicistronic subgenomic luciferase reporter replicon clone ET or Huh-Luc-Neo). The protocol included a 3-day incubation of 2×10^4 replicon cells in a 96-well format in a six-point 1:5 dilution series of the compound. Dose response curves were generated based on the luciferase read-out.

Series [5] has as its system HCV type 1b replicon (Huh-7 luc/neo cells). Nature of the series: Replicon assay (A), Huh-Luc luciferase read-out. As to conditions: Hepatitis C virus, Huh-7, 72 h, read-out: EC50 (μM) (HCV). The format is cell-based, HCV genotype 1b. From the text:
The compounds of formula I were examined for activity in the inhibition of HCV-RNA replication in a cellular assay. […] The cellular assay was based on a bicistronic expression construct, as described by Lohmann et al. (1999) Science vol. 285 pp. 110-113 with modifications described by Krieger et al. (2001) Journal of Virology 75: 4614-4624, in a multi-target screening strategy.
In essence, the method was as follows. The assay utilized the stably transfected cell line Huh-7 luc/neo (hereafter referred to as Huh-Luc). This cell line harbors an RNA encoding a bicistronic expression construct comprising the wild type NS3-NS5B regions of HCV type 1b translated from an internal ribosome entry site (IRES) from encephalomyocarditis virus (EMCV), preceded by a reporter portion (FfL-luciferase), and a selectable marker portion (neo^R, neomycine phosphotransferase). […]
The replicon cells were plated in 384-well plates in the presence of the test and control compounds which were added in various concentrations. Following an incubation of three days, HCV replication was measured by assaying luciferase activity (using standard luciferase assay substrates and reagents and a Perkin Elmer ViewLux™ ultraHTS microplate imager). […] The inhibitory activity of the compound on luciferase activity was monitored on the Huh-Luc cells, enabling a dose-response curve for each test compound. […]

Series [6] can be described thus: Cytotoxicity (CC50) in Huh-7. The format is cell-based. As to conditions: human, Huh-7 cells; Huh-7 cytotoxicity. From the text: The in vitro antiviral activity against HCV of the compounds of formula I can be tested in a cellular HCV replicon system based on Lohmann et al. (1999) Science 285:110-113, with the further modifications described by Krieger et al. (2001) Journal of Virology 75: 4614-4624 (incorporated herein by reference), which is further exemplified in the examples section. This model, while not a complete infection model for HCV, is widely accepted as the most robust and efficient model of autonomous HCV RNA replication currently available. It will be appreciated that it is important to distinguish between compounds that specifically interfere with HCV functions from those that exert cytotoxic or cytostatic effects in the HCV replicon model, and as a consequence cause a decrease in HCV RNA or linked reporter enzyme concentration. Assays are known in the field for the evaluation of cellular cytotoxicity based for example on the activity of mitochondrial enzymes using fluorogenic redox dyes such as resazurin. Furthermore, cellular counter screens exist for the evaluation of non-selective inhibition of linked reporter gene activity, such as firefly luciferase. […]

pEC50: −log10 of the molar value. Where two headings read alike, the source gives them in different places. Where only a bound is given, the exact number is not on record here.

Turning to IFNα, the “positive strand HCV-RNA levels in primary human hepatocytes” value (“positive strand HCV-RNA levels” for short) was 1.48 10^6 HCV RNA copies/μg of total RNA in series [1] (Exp. 1, 100 IU/mL, HCV control 3.56) and 1.59 10^6 HCV RNA copies/μg of total RNA in series [1] (Exp. 2, 100 IU/mL, HCV control 5.53).
Consider `CC(C)O[P@@]1(=O)OC[C@H]2O[C@@H](n3ccc(=O)[nH]c3=O)[C@@]3(CCO3)[C@@H]2O1` [Compound 8a], for which the “log drop HCV viral RNA after dosing for 7 days” value with HCV G1a (50 mg/kg BID p.o.) is listed as “clear log drop”; with HCV G1a (100 mg/kg BID p.o.), “most pronounced log drop effect in viral RNA”; with HCV G1a (100 mg/kg QD p.o.) it was “clear log drop”; in the series on HCV G1a (200 mg/kg QD p.o.), “clear log drop”. In addition, the pEC50 (as a rule, the negative decadic logarithm of the EC50, by convention in mol/L) was less than 4.00 in series [2], 4.24 in series [3] and 4.76 in series [4]. For the same molecule, the EC50 (usually the concentration needed to bring the measured effect to its halfway point) in series [5] worked out at 0.13 µM. In addition, the “positive strand HCV-RNA levels” value is 2.18 10^6 HCV RNA copies/μg of total RNA in series [1] (Exp. 1, 0.195 μM, HCV control 3.56); 2.25 10^6 HCV RNA copies/μg of total RNA in series [1] (Exp. 1, 0.78 μm, HCV control 3.56); 1.09 10^6 HCV RNA copies/μg of total RNA in series [1] (Exp. 1, 3.12 μm, HCV control 3.56); 2.17 10^6 HCV RNA copies/μg of total RNA in series [1] (Exp. 1, 12.5 μm, HCV control 3.56); 0.94 10^6 HCV RNA copies/μg of total RNA in series [1] (Exp. 1, 50 μm, HCV control 3.56); 1.12 10^6 HCV RNA copies/μg of total RNA in series [1] (Exp. 2, 0.195 μM, HCV control 5.53). Also, the “positive strand HCV-RNA levels” value in series [1] (Exp. 2, 0.78 μm, HCV control 5.53) is given as 1.3 10^6 HCV RNA copies/μg of total RNA; in series [1] (Exp. 2, 3.12 μm, HCV control 5.53) it was 0.94 10^6 HCV RNA copies/μg of total RNA; in series [1] (Exp. 2, 12.5 μm, HCV control 5.53), 1.3 10^6 HCV RNA copies/μg of total RNA; in series [1] (Exp. 2, 50 μm, HCV control 5.53) it was 1.33 10^6 HCV RNA copies/μg of total RNA. In addition, in series [6], the CC50 (usually the concentration giving 50% cytotoxicity) is greater than 100 µM.
